Laboratory results from patent US20190351012A1, “TARGETING OF INTERFERON-STIMULATED GENE EXPRESSION TO TREAT INTERFERONOPATHIES” (New York University, priority 2018, published 2019).

Tests used:
[1] = test system: BRD4 at ISG56, Mx1 and IRF9 TSS; test: ChIP-qPCR for BRD4 at ISG promoters in HeLa cells; type: cell-based, human; conditions: 1 h IFN stimulation
Protocol: FIG. 5. BRD4 is required for ISG transcription. (A) HeLa cells were either left untreated or treated with IFN-α for 1 h in presence or absence of JQ-1 or HMBA. Using primers spanning intron-exon junctions, nuclear pre-mRNA for ISG54 and γ-actin were quantified by real-time RT-PCR and normalized to GAPDH mRNA. (B) Control and BRD4 KD cells were either left untreated or treated with IFN-α. ISG56 and BRD4 mRNA were quantified using real-time RT-PCR and normalized to GAPDH mRNA abundance. (C) HEK293T cells were transfected with pcDNA3 (Ctl) or Brd4 expression constructs along with a luciferase reporter driven by the ISG54 promoter. 24 h after transfection, cells were either left untreated or treated with IFN-α in the absence or presence of TSA before being assayed for luciferase activity (left panel). […] Nuclear proteins were extracted as a soluble fraction and a chromatin bound fraction and analyzed by western blotting using anti-BRD4, H4-AcK5 and actin antibodies. […] (F) ChIP assays were performed with antibodies against BRD4 and recovered ISG56, Mx1 and IRF9 TSS spanning sequences were quantified by real-time PCR, normalized to input, and represented as fold enrichment over the untreated sample. […]
(§1) Chromatin immunoprecipitation was performed as follows. […] Immunoprecipitated DNA sequences were recovered by alcohol precipitation and quantified by real-time PCR compared with input genomic DNA. […]

[2] = test system: H3K4me3 at ISG54, ISG56 and 6-16 promoters; test: ChIP for H3K4me3 at ISG promoters in 2fTGH cells; type: cell-based, human; conditions: co-treatment with IFN-α
Protocol: FIG. 3. […] (A) 2fTGH cells were either left untreated or treated with IFN-α in the absence or presence of TSA for the indicated time (min). ChIP assays were performed with antibodies against Pol II and recovered ISG56 promoter sequences were quantified by real-time PCR relative to input and represented as fold induction relative to untreated cells. (B) As in A, except that antibodies against phosphorylated Pol II at serine-5 in the CTD were used for immunoprecipitation, following 60 min IFN-α treatments. Recovered ISG54, ISG56 and ISG15 promoter sequences were quantified by real-time PCR relative to input and represented as fold induction relative to untreated cells. (C) As in A, except that cells were treated with IFN-α for 60 min and proximal, middle and distal fragments along the ISG54 gene (left panel) and ISG56 gene (right panel) were assayed. (D) As in A, except that antibodies against trimethylated lysine-4 on histone H3 were used. Promoter regions of ISG54, ISG56 and 6-16 genes were quantified by real-time PCR and reported as fold over the signal detected with a non-specific antibody.
as §1

## CC(/C=C/C(=O)NO)=C\[C@@H](C)C(=O)c1ccc(N(C)C)cc1 [TSA, Trichostatin A]
[1]
  IFN-induced BRD4 recruitment to ISG promoters: abrogated
[2]
  level of H3K4me3 on ISG promoters: neither IFN stimulation nor TSA co-treatment significantly affected
